One block for each compound: values may come before it.
Assays:
[1] = target: 2-hydroxybiphenyl 3-monooxygenase (HbpA) from Pseudomonas azelaica HBP1 (Pseudomonas azelaica HBP1); assay: crystal structure; P1 crystals with four molecules in the asymmetric unit (one tetramer); apo form and FAD complex (crystals soaked in 1 mM FAD); grown in 18 % PEG 3350, 0.15 M KSCN, Bis-Tris propane pH 5.5, protein 10 mg/mL
[2] = target: T1, HbpA; 2-hydroxybiphenyl 3-monooxygenase (Pseudomonas nitroreducens, UniProt O06647); assay: UV spectrophotometry of NADH oxidation at […] nm; format: biochemical; conditions: co-substrate NADH; air-saturated buffer; read-out: WT
T1 construct: full length with uncleaved N-terminal His6 tag, spacer and 3C site (21 residues longer than native); pET-YSBLIC-3C, E. coli BL21(DE3); homotetramer; tag not removed for crystals
T1 sequence (O06647 1-586): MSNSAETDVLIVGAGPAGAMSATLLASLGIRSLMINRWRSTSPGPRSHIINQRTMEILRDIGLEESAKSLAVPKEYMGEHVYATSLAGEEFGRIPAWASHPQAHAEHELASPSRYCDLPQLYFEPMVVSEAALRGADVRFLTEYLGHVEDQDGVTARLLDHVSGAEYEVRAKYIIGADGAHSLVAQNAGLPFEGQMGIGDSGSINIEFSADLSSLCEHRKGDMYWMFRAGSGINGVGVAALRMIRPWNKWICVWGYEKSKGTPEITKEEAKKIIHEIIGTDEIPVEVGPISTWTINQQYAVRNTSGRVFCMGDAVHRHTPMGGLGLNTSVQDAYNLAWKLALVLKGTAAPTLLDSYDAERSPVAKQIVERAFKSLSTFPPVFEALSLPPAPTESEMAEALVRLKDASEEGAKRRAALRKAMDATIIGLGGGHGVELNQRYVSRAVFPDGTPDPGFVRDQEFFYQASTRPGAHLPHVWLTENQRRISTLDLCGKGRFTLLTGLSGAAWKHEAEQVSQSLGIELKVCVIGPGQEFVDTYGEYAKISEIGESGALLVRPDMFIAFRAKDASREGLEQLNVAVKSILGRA

[3] = target: T1, HbpA; 2-hydroxybiphenyl 3-monooxygenase; assay: X-ray crystal structure, […] Å, FAD soak; format: binding; conditions: crystals soaked in 1 mM FAD; flavin in the "in" position

- stoichiometry N [1]: 4
Compound: 2-hydroxybiphenyl 3-monooxygenase (HbpA) from Pseudomonas azelaica HBP1 (enzyme)

Compound: Oc1ccccc1-c1ccccc1 [2HBP]
- Km [2]: 3.3 ± 0.2 µM

Compound: Cc1cc2nc3c(=O)[nH]c(=O)nc-3n(C[C@H](O)[C@H](O)[C@H](O)COP(=O)(O)OP(=O)(O)OC[C@H]3O[C@@H](n4cnc5c(N)ncnc54)[C@H](O)[C@@H]3O)c2cc1C [FAD]
- X-ray crystal structure, 2.03 Å, FAD soak [3]: both apo-HbpA and the FAD complex have been deposited in the Protein Data Bank
